Experimental data reported in ChEMBL document CHEMBL2396620, “Synthesis and biological evaluation of novel benzoxazinyl-oxazolidinones as potential antibacterial agents” (2013).
≈ marks a conversion by molar mass, not a printed value.

Assays:
Format in all cases: functional
Streptococcus pneumoniae [1] = test: Antibacterial activity against penicillin-resistant Streptococcus pneumoniae assessed as growth inhibition after 16 hrs by agar dilution method
[2] = system: Staphylococcus epidermidis; test: Antibacterial activity against methicillin-sensitive Staphylococcus epidermidis assessed as growth inhibition after 16 hrs by agar dilution method
Enterococcus faecalis [3] = test: Antibacterial activity against Enterococcus faecalis assessed as growth inhibition after 16 hrs by agar dilution method
Staphylococcus aureus [4] = test: Antibacterial activity against methicillin-sensitive Staphylococcus aureus assessed as growth inhibition after 16 hrs by agar dilution method
[5] = system: Staphylococcus epidermidis; test: Antibacterial activity against methicillin-resistant Staphylococcus epidermidis assessed as growth inhibition after 16 hrs by agar dilution method
Staphylococcus aureus [6] = test: Antibacterial activity against methicillin-resistant Staphylococcus aureus assessed as growth inhibition after 16 hrs by agar dilution method
Enterococcus faecalis [7] = test: Ratio of linezolid MIC to compound MIC for Enterococcus faecalis
Staphylococcus aureus [8] = test: Ratio of linezolid MIC to compound MIC for methicillin-sensitive Staphylococcus aureus
[9] = system: Staphylococcus epidermidis; test: Ratio of linezolid MIC to compound MIC for methicillin-sensitive Staphylococcus epidermidis
Streptococcus pneumoniae [10] = test: Ratio of linezolid MIC to compound MIC for penicillin-resistant Streptococcus pneumoniae

Structure (SMILES) | MIC (Streptococcus pneumoniae [1]) [µg/mL] | MIC [2] [µg/mL] | MIC (Enterococcus faecalis [3]) [µg/mL] | MIC (Staphylococcus aureus [4]) [µg/mL] | MIC [5] [µg/mL] | MIC (Staphylococcus aureus [6]) [µg/mL] | Ratio (Enterococcus faecalis [7]) | Ratio (Staphylococcus aureus [8]) | Ratio [9] | Ratio (Streptococcus pneumoniae [10])
CCO/N=C(\C)c1ccc(-c2ccc3c(c2)OC[C@H]2[C@H](Cn4ccnn4)OC(=O)N32)cn1 | > 32 | > 32 | > 32 | > 32 | – | – | – | – | – | –
CC(O)c1ccc(-c2ccc3c(c2)OC[C@H]2[C@H](Cn4ccnn4)OC(=O)N32)cn1 (some centres not stated) | 0.5 (≈ 1.27 µM) | 1 (≈ 2.54 µM) | 2 (≈ 5.08 µM) | 1 (≈ 2.54 µM) | 1 (≈ 2.54 µM) | 1 (≈ 2.54 µM) | – | – | – | –
CC(=O)c1ccc(-c2ccc3c(c2)OC[C@H]2[C@H](Cn4ccnn4)OC(=O)N32)cn1 | 0.25 (≈ 0.639 µM) | 0.5 (≈ 1.28 µM) | 2 (≈ 5.11 µM) | 0.5 (≈ 1.28 µM) | 1 (≈ 2.56 µM) | 0.5 (≈ 1.28 µM) | – | – | – | –
O=C1O[C@@H](Cn2ccnn2)[C@@H]2COc3cc(-c4ccc(Cn5ccnn5)nc4)ccc3N12 | 2 (≈ 4.65 µM) | 1 (≈ 2.32 µM) | 4 (≈ 9.29 µM) | 2 (≈ 4.65 µM) | 1 (≈ 2.32 µM) | 1 (≈ 2.32 µM) | – | – | – | –
N#Cc1ccc(-c2ccc3c(c2)OC[C@H]2[C@H](Cn4ccnn4)OC(=O)N32)cn1 | 0.25 (≈ 0.668 µM) | 0.25 (≈ 0.668 µM) | 1 (≈ 2.67 µM) | 0.25 (≈ 0.668 µM) | 0.25 (≈ 0.668 µM) | 0.25 (≈ 0.668 µM) | 4 | 4 | 4 | 4
O=C1O[C@@H](Cn2ccnn2)[C@@H]2COc3cc(-c4ccc(-n5cc(CO)oc5=O)nc4)ccc3N12 | 0.5 (≈ 1.08 µM) | 0.5 (≈ 1.08 µM) | 1 (≈ 2.16 µM) | 0.5 (≈ 1.08 µM) | 1 (≈ 2.16 µM) | 1 (≈ 2.16 µM) | – | – | – | –
CC(=O)NC[C@H]1CN(c2ccc(N3CCOCC3)c(F)c2)C(=O)O1 [LINEZOLID] | – | 1 (≈ 2.96 µM) | – | 1 (≈ 2.96 µM) | 1 (≈ 2.96 µM) | 1 (≈ 2.96 µM) | – | – | – | –
Cc1nc(-c2ccc(-c3ccc4c(c3)OC[C@H]3[C@H](Cn5ccnn5)OC(=O)N43)cn2)no1 | 1 (≈ 2.32 µM) | 2 (≈ 4.64 µM) | 8 (≈ 18.5 µM) | 2 (≈ 4.64 µM) | 4 (≈ 9.27 µM) | 2 (≈ 4.64 µM) | – | – | – | –
C/C(=N\OC(C)C)c1ccc(-c2ccc3c(c2)OC[C@H]2[C@H](Cn4ccnn4)OC(=O)N32)cn1 | > 32 | > 32 | > 32 | > 32 | – | – | – | – | – | –
O=C1O[C@@H](Cn2ccnn2)[C@@H]2COc3cc(-c4ccc(CO)nc4)ccc3N12 | 2 (≈ 5.27 µM) | 1 (≈ 2.64 µM) | 4 (≈ 10.5 µM) | 2 (≈ 5.27 µM) | 1 (≈ 2.64 µM) | 1 (≈ 2.64 µM) | – | – | – | –
N#Cc1ccc(-c2ccc3c(c2)OC[C@H]2[C@H](C(N)=O)OC(=O)N32)cn1 | > 32 | > 32 | > 32 | > 32 | – | – | – | – | – | –
CN1C[C@@H](c2ccc(-c3ccc4c(c3)OC[C@H]3[C@H](Cn5ccnn5)OC(=O)N43)cn2)OC1=O | 0.25 (≈ 0.557 µM) | 0.5 (≈ 1.11 µM) | 2 (≈ 4.46 µM) | 0.5 (≈ 1.11 µM) | 1 (≈ 2.23 µM) | 1 (≈ 2.23 µM) | – | – | – | –
NC(=O)[C@@H]1OC(=O)N2c3ccc(-c4ccc(Cn5cncn5)nc4)cc3OC[C@@H]12 | > 32 | > 32 | > 32 | > 32 | > 32 | > 32 | – | – | – | –
O=C1O[C@@H](Cn2ccnn2)[C@@H]2COc3cc(-c4ccc(Cn5ncnn5)nc4)ccc3N12 | 2 (≈ 4.64 µM) | 0.5 (≈ 1.16 µM) | 2 (≈ 4.64 µM) | 1 (≈ 2.32 µM) | 1 (≈ 2.32 µM) | 1 (≈ 2.32 µM) | – | – | – | –
Cn1nnnc1-c1ccc(-c2ccc3c(c2)OC[C@H]2[C@H](Cn4ccnn4)OC(=O)N32)cn1 | 2 (≈ 4.64 µM) | 1 (≈ 2.32 µM) | 4 (≈ 9.27 µM) | 2 (≈ 4.64 µM) | 1 (≈ 2.32 µM) | 1 (≈ 2.32 µM) | – | – | – | –
O=C1O[C@@H](Cn2ccnn2)[C@@H]2COc3cc(-c4ccc(Cn5cnnn5)nc4)ccc3N12 | 4 (≈ 9.27 µM) | 1 (≈ 2.32 µM) | 4 (≈ 9.27 µM) | 2 (≈ 4.64 µM) | 1 (≈ 2.32 µM) | 2 (≈ 4.64 µM) | – | – | – | –
NC(=O)[C@@H]1OC(=O)N2c3ccc(-c4ccc(-n5ccoc5=O)nc4)cc3OC[C@@H]12 | > 32 | > 32 | > 32 | > 32 | > 32 | > 32 | – | – | – | –
Cc1nc(-c2ccc(-c3ccc4c(c3)OC[C@H]3[C@H](C(N)=O)OC(=O)N43)cn2)no1 | > 32 | > 32 | > 32 | > 32 | – | – | – | – | – | –
O=C1O[C@@H](Cn2ccnn2)[C@@H]2COc3cc(-c4ccc(Cn5cncn5)nc4)ccc3N12 | 2 (≈ 4.65 µM) | 0.5 (≈ 1.16 µM) | 1 (≈ 2.32 µM) | 0.5 (≈ 1.16 µM) | 0.5 (≈ 1.16 µM) | 0.5 (≈ 1.16 µM) | 2 | 2 | 2 | –
Cn1nnc(-c2ccc(-c3ccc4c(c3)OC[C@H]3[C@H](Cn5ccnn5)OC(=O)N43)cn2)n1 | 1 (≈ 2.32 µM) | 1 (≈ 2.32 µM) | 4 (≈ 9.27 µM) | 2 (≈ 4.64 µM) | 2 (≈ 4.64 µM) | 2 (≈ 4.64 µM) | – | – | – | –
